US10087234B2, “Mimetic peptides” (LES HOPITAUX UNIVERSITAIRES DE GENEVE, priority 2012, dated 2018)
Bridges are numbered along the chain shown (N, C = ends). Where no end group is shown, it is not given here. [ ]: non-standard residue; d: D form. R8 = C=CCCCCCC[C@@](C)(N)C(=O)O; S5 = C=CCCC[C@](C)(N)C(=O)O

Experiments:
anti-ApoA-I antibodies [1] = assay: Competition ELISA on plates coated with intact ApoA-I; type: binding, human
Method: Competition ELISA experiments using selected synthetic peptides were also carried out. Synthetic peptides (dissolved in PBS with 2% bovine serum albumin (BSA) at different concentrations were co-incubated with patient sera containing high levels of anti-ApoA-I IgG for 2 h at room temperature, before being added to the wells coated with purified, human-derived delipidated ApoA-I as described above, prior to development of the assay as described above.
In competition ELISA assays, serum from a patient known to be positive for anti-ApoA-I antibodies was preincubated with peptide F3L1 at different concentrations as indicated in FIG. 3 and then added to ELISA plates coated with intact ApoA-I, with the subsequent assay steps carried out according to the standard protocol.

[2] = CD spectroscopy to determine helical content; type: physicochemical; settings: troughs at 208 and 222 nm, in comparison to non-stapled control peptide F3
Method: Circular dichroism (CD) spectra from 185 to 240 nm were collected on a Jasco J-815 spectropolarimeter at 20° C. A typical sample was prepared by dissolving lyophilized peptide in 25% trifluoroethanol in water to obtain a concentration of 2 mM, then diluting this solution 20-fold in water and loading in a quartz cuvette (0.2 cm path length). Baseline CD spectra for 1.25% TFE in water was subtracted from the experimental spectra. Data were normalized by calculating the mean residue ellipticity at wavelength 222 nm, (θ)mrw, λ.

[3] = test system: Human monocyte-derived macrophages (HMDMs); assay: Anti-ApoA-I IgG-related pro-inflammatory response (TNF-α production); type: cell-based
Method: Human monocyte-derived macrophages (HMDMs) were obtained by treating human monocytes with interferon (IFN)-γ for 24 hours as previously described (Pagano et al, 2012, J Intern Med). HMDMs were then stimulated in 96-well trays for 24 h with increasing concentrations (5-40 μg/mL) of either polyclonal anti-human ApoA-I (Academy Bio-Medical Company, Houston, Tex., USA) or control antibody (Meridian Life Science, Saco, Me., USA), with IgG from pool+ or pool− (500 μg/mL). In this model, LPS-free anti-ApoA-I IgG has been show to promote the production of TNF-α and IL-6 in a dose dependent manner, with an optimal stimulation at 40 μg/ml (Pagano et al, 2012, J Intern Med).
For competition inhibition experiments, synthetic peptides were co-incubated with 40 μg/ml polyclonal anti-ApoA-I IgG for 2 h at room temperature prior to addition to HMDMs in 96-well plates, and followed by the assessment of IL-6 and TNF-α levels in cell supernatants using Luminex MAP™ Technology. Experiments were performed with blood from three different donors.

[4] = test system: Neonatal rat ventricular cardiomyocytes (NRVC); assay: Anti-ApoA-I IgG-related chronotropic response (beating frequency); type: cell-based
From the text: Neonatal rat ventricular cardiomyocytes (NRVC) were isolated from ventricles of 1-2 day-old Wistar rats by digestion with low trypsin-EDTA and type 2 collagenase. Animals were killed by decapitation without any anesthesia, analgesia, or administration of neuromuscular blocking agents, in conformity with the Guide for the Care and Use of Laboratory Animals published by the NIH (publication 85-23) and with the authorization (1012/3134/0-R) of the local county veterinary office. Freshly isolated cells were seeded in plastic flasks to allow selective adhesion of cardiac fibroblasts. Thereafter cardiomyocytes were decanted from the flasks and distributed into laminin-coated 90 mm petri dishes.
After 1-2 days' culture, cells were incubated at time intervals with the appropriate concentration of monoclonal anti-ApoA-I IgG (Abcam, Nottingham, UK) or vehicle in serum-free DMEM. The beating frequency of spontaneously contracting small cell monolayers was determined immediately at the end of the pre-incubation period (t=0) and at different times after the addition of various substances. Frequency determinations were performed by a technician (unaware of the experimental conditions) using a light microscope to count the number of contractions per time unit in three different locations of the dish. The regularity of the cell contractions has been previously assessed by monitoring cytosolic-free calcium fluctuations with fluorescent calcium probes (Maturana et al, 2009, Endocrinology 150:3726-3734). […] Competition inhibition experiments with synthetic peptides were performed using the same experimental conditions. Synthetic peptides were co-incubated with 10 μg/ml monoclonal anti-ApoA-I (Abcam, Nottingham, UK) for 2 h at room temperature, before being added to NRVC in dishes, with beating frequency determined as described above.

anti-ApoA-I antibodies [5] = assay: ELISA immunoreactivity of ApoA-I digestion fragments (epitope identification); type: binding, human; settings: sera from 3 patients with high and 3 with low autoantibody titers
Method: To identify specific endogenous epitopes of ApoA-I, the purified ApoA-I was submitted to enzymatic digestion, hydrolyzing the protein specifically at the carboxyl side of lysine or at the carboxylic side of arginine, followed by peptide separation and purification by reversed phase-high performance liquid chromatography and peptide identification by mass spectrometry. The immunoreactivity to the digested protein and each fraction were tested by ELISA using serum samples from 3 patients with high titers and serum samples from 3 patients with low titers of autoantibodies.
For ApoA-I digested at lysine residues, the enzyme Endoproteinase Lys-C(Roche Applied Science) was used (amount of enzyme 1:50 was 1/50 of protein by weight, incubation for 18 h at 37° C., pH 8.5). ApoA-I digestion with Lys-C allowed identification of fractions 70 and 71 (FIG. 8) containing a previously unreported immunoreactive peptide epitope of amino acid sequence corresponding to amino acid residues 141-182 relative to mature amino acid sequence of ApoA-I of SEQ ID NO: 1, comprising the region derived from helix D of SEQ ID NO: 5 with a deletion of the last 2 amino acids of SEQ ID NO: 5. The amino acid sequence of this epitope is SEQ ID NO: 21.
In order to generate peptide fragments cleaved at arginine residues the conventional way would to use the enzyme ArgC. However, ArgC enzyme has a recognized lack of specificity, generating tryptic peptides, which abolished the immunoreactivity. […] This approach allowed identification of fractions 74 and 80 (FIG. 9) containing another immunoreactive peptide epitope of amino acid sequence corresponding to amino acid residues 216-243 relative to mature amino acid sequence of ApoA-I of SEQ ID NO: 1, comprising the region 1 derived from helix F of SEQ ID NO: 8. The amino acid sequence of this epitope is SEQ ID NO: 25.

[6] = serum from 3 anti-ApoA-I positive patients, FIG. 5

Substance	alpha-helical content [2]	immunoreactivity to anti-ApoA-I antibodies (anti-ApoA-I antibodies [5])	also measured
Ac-GLLPVLESFKVSFLSALEXaaYTKXaaLNT-NH2 (Ac-GLLPVLESFKVSFLSALEEYTKKLNT-NH2; lactam 19-23; SMILES CC(=O)NCC(=O)N[C@@H](CC(C)C)C(=O)N[C@@H](CC(C)C)C(=O)N1CCC[C@H]1C(=O)N[C@H](C(=O)N[C@@H](CC(C)C)C(=O)N[C@@H](CCC(=O)O)C(=O)N[C@@H](CO)C(=O)N[C@@H](Cc1ccccc1)C(=O)N[C@@H](CCCCN)C(=O)N[C@H](C(=O)N[C@@H](CO)C(=O)N[C@@H](Cc1ccccc1)C(=O)N[C@@H](CC(C)C)C(=O)N[C@@H](CO)C(=O)N[C@@H](C)C(=O)N[C@@H](CC(C)C)C(=O)N[C@@H](CCC(=O)O)C(=O)N[C@H]1CCC(=O)NCCCC[C@@H](C(=O)N[C@@H](CC(C)C)C(=O)N[C@@H](CC(N)=O)C(=O)N[C@H](C(N)=O)[C@@H](C)O)NC(=O)[C@H](CCCCN)NC(=O)[C@H]([C@@H](C)O)NC(=O)[C@H](Cc2ccc(O)cc2)NC1=O)C(C)C)C(C)C) [F3L1]	increased alpha-helical content	–	inhibition of binding of patient serum IgG to intact ApoA-I (anti-ApoA-I antibodies [1]; [6]): competes effectively; inhibition of binding of patient serum IgG to intact ApoA-I (anti-ApoA-I antibodies [1]; serum from one anti-ApoA-I positive patient, FIG. 4): capable of competitively inhibiting; effect on TNF-α production induced by anti-ApoA-I IgG ([3]; polyclonal anti-ApoA-I IgG 40 μg/ml pre-incubated with peptide 2 h, FIG. 6A): abrogated; effect on TNF-α production induced by pool of IgG from anti-ApoA-I positive patients ([3]; pooled patient IgG pre-incubated with peptide, FIG. 6B): same effect; effect on anti-ApoA-I IgG related chronotropic response ([4]; antibody pre-incubated with peptide 75 μg/ml for 2 h, FIG. 7): fully abrogated; basal frequency contraction rate ([4]; peptide added alone): did not alter; contraction rate in the presence of 10 nM aldosterone ([4]; peptide added alone, 10 nM aldosterone): did not alter
Ac-GLLPVLESFKVSFLSXaaLEEYTKXaaLNT-NH2 (Ac-GLLPVLESFKVSFLS[R8]LEEYTK[S5]LNT-NH2; staple 16-23) [F3S2A]	increased alpha-helical content	–	–
Ac-KELYLLKFTVESKVGSTELPLNFSLA-NH2 [scrambled F3, reference compound]	–	–	inhibition of binding of patient serum IgG to intact ApoA-I (anti-ApoA-I antibodies [1]; [6]): absence of dose-dependent inhibition
Ac-VLESFKVSFLSALEXaaYTKXaaLNT-NH2 (Ac-VLESFKVSFLSALEEYTKKLNT-NH2; lactam 15-19; SMILES CC(=O)N[C@H](C(=O)N[C@@H](CC(C)C)C(=O)N[C@@H](CCC(=O)O)C(=O)N[C@@H](CO)C(=O)N[C@@H](Cc1ccccc1)C(=O)N[C@@H](CCCCN)C(=O)N[C@H](C(=O)N[C@@H](CO)C(=O)N[C@@H](Cc1ccccc1)C(=O)N[C@@H](CC(C)C)C(=O)N[C@@H](CO)C(=O)N[C@@H](C)C(=O)N[C@@H](CC(C)C)C(=O)N[C@@H](CCC(=O)O)C(=O)N[C@H]1CCC(=O)NCCCC[C@@H](C(=O)N[C@@H](CC(C)C)C(=O)N[C@@H](CC(N)=O)C(=O)N[C@H](C(N)=O)[C@@H](C)O)NC(=O)[C@H](CCCCN)NC(=O)[C@H]([C@@H](C)O)NC(=O)[C@H](Cc2ccc(O)cc2)NC1=O)C(C)C)C(C)C) [F4L1]	increased alpha-helical content	–	–
Ac-VLESFKVSXaaLSALEEXaaTKKLNT-NH2 (Ac-VLESFKVS[R8]LSALEE[S5]TKKLNT-NH2; staple 9-16) [F4S2B]	increased alpha-helical content	–	–
EEMRDRARAHVDALRTHLAPYSDELRQRLAARLEALKEN (Region derived from Helix D of ApoA-I) [SEQ ID NO: 5]	–	more immunoreactive	–
GLLPVLESFKVSFLSALEEYTKKLNT (Ac-GLLPVLESFKVSFLSALEEYTKKLNT-NH2) [F3, reference compound]	–	–	inhibition of binding of patient serum IgG to intact ApoA-I (anti-ApoA-I antibodies [1]; [6]): effect observed
GLLPVLESFKVSFLSALEEYTKKLNT (not fully specified (bridges)) [SEQ ID NO: 9, Region 2 derived from helix F]	–	more immunoreactive	–
LSPLGEEMRDRARAHVDALRTHLAPYSDELRQRLAARLEALK (D2) [SEQ ID NO: 21]	–	immunoreactive	–
QGLLPVLESFKVSFLSALEEYTKKLNTQ (F5) [SEQ ID NO: 25]	–	immunoreactive	–
VLESFKVSFLSALEEYTKKLNT (not fully specified (bridges)) [SEQ ID NO: 8, Region 1 derived from helix F]	–	more immunoreactive	–
amino acid residues 189-215 of mature ApoA-1: peptide corresponding to amino acid residues 189-215 of mature ApoA-1 of SEQ ID NO: 1, containing helix E (LAEYHAKATEHLSTLSEKAKPALEDLR; UniProt P02647 213-239, looked up, fragment)	–	less immunoreactive	–
